# Molecular target: T1, PRMT5/MEP50 (Homo sapiens, UniProt O14744)
# T1 construct: Flag-PRMT5; made in house; host or cells: Spodoptera frugiperda (SF9) insect cells, baculovirus (pDEST8)
# Assay: PRMT5 Biochemical Assay (PRMT5/MEP50 enzyme assay on peptide substrate, 3H-SAM Flashplate)
# Details: PRMT5/MEP50 4 nM, 3H-SAM 75 nM, peptide 40 nM, 30 min preincubation at 25 degrees Celsius
# Source text: S-adenosylmethionine (SAM), S-adenosylhomocysteine (SAH), bicine, KCl, Tween20, dimethylsulfoxide (DMSO), bovine skin gelatin (BSG), and Tris(2-carboxyethyl)phosphine hydrochloride solution (TCEP) were purchased from Sigma-Aldrich at the highest level of purity possible. ^3H-SAM was purchase from American Radiolabeled Chemicals with a specific activity of 80 Ci/mmol. 384-well streptavidin Flashplates were purchased from PerkinElmer.
# Peptide representative of human histone H4 residues 1-15 was synthesized with a C-terminal linker-affinity tag motif and a C-terminal amide cap by 21st Century Biochemicals. The peptide was high high-performance liquid chromatography (HPLC) purified to greater than 95% purity and confirmed by liquid chromatography mass spectrometry (LC-MS). The sequence was Ac-[…][K-Biot]-amide (SEQ ID NO.:3).
# Full-length human PRMT5 (NM_006109.3) transcript variant 1 clone was amplified from a fetal brain cDNA library, incorporating flanking 5′ sequence encoding a FLAG tag ([…]) (SEQ ID NO.:4) fused directly to Ala 2 of PRMT5. Full-length human MEP50 (NM_024102) clone was amplified from a human testis cDNA library incorporating a 5′ sequence encoding a 6-histidine tag (MHHHHHH) (SEQ ID NO.:5) fused directly to Arg 2 of MEP50. The amplified genes were sublconed into pENTR/D/TEV (Life Technologies) and subsequently transferred by Gateway™ attL×attR recombination to pDEST8 baculvirus expression vector (Life Technologies).
# Recombinant baculovirus and Baculovirus-Infected Insect Cells (BIIC) were generated according to Bac-to-Bac kit instructions (Life Technologies) and Wasilko, 2006, respectively. Protein over-expression was accomplished by infecting exponentially growing Spodoptera frugiperda (SF9) cell culture at 1.2×10^6 cell/ml with a 5000 fold dilution of BIIC stock. Infections were carried out at 27° C. for 72 hours, harvested by centrifugation, and stored at −80° C. for purification.
# Flag-PRMT5/6His-MeP50 was eluted with 300 mM Imidazole in the same buffer. The purity of recovered protein was 87%. Reference: Wasilko, D. J. and S. E. Lee: “TIPS: titerless infected-cells preservation and scale-up” Bioprocess J., 5 (2006), pp. 29-32.
# General Procedure for PRMT5/MEP50 Enzyme Assays on Peptide Substrates.
# The assays were all performed in a buffer consisting of 20 mM Bicine (pH=7.6), 1 mM TCEP, 0.005% BSG, and 0.002% Tween20, prepared on the day of use. Compounds in 100% DMSO (1 ul) were spotted into a polypropylene 384-well V-bottom plates (Greiner) using a Platemate Plus outfitted with a 384-channel head (Thermo Scientific). DMSO (1 ul) was added to Columns 11, 12, 23, 24, rows A-H for the maximum signal control and 1 ul of SAH, a known product and inhibitor of PRMT5/MEP50, was added to columns 11, 12, 23, 24, rows I-P for the minimum signal control. A cocktail (40 ul) containing the PRMT5/MEP50 enzyme and the peptide was added by Multidrop Combi (Thermo-Fisher). The compounds were allowed to incubate with PRMT5/MEP50 for 30 min at 25 degrees Celsius, then a cocktail (10 ul) containing ^3H-SAM was added to initiate the reaction (final volume=51 ul). The final concentrations of the components were as follows: PRMT5/MEP50 was 4 nM, ^3H-SAM was 75 nM, peptide was 40 nM, SAH in the minimum signal control wells was 100 uM, and the DMSO concentration was 1%. The assays were stopped by the addition of non-radioactive SAM (10 ul) to a final concentration of 600 uM, which dilutes the ^3H-SAM to a level where its incorporation into the peptide substrate is no longer detectable. 50 ul of the reaction in the 384-well polypropylene plate was then transferred to a 384-well Flashplate and the biotinylated peptides were allowed to bind to the streptavidin surface for at least 1 hour before being washed three times with 0.1% Tween20 in a Biotek ELx405 plate washer. […]
# T1 sequence (O14744 with tags, fused parts or gaps): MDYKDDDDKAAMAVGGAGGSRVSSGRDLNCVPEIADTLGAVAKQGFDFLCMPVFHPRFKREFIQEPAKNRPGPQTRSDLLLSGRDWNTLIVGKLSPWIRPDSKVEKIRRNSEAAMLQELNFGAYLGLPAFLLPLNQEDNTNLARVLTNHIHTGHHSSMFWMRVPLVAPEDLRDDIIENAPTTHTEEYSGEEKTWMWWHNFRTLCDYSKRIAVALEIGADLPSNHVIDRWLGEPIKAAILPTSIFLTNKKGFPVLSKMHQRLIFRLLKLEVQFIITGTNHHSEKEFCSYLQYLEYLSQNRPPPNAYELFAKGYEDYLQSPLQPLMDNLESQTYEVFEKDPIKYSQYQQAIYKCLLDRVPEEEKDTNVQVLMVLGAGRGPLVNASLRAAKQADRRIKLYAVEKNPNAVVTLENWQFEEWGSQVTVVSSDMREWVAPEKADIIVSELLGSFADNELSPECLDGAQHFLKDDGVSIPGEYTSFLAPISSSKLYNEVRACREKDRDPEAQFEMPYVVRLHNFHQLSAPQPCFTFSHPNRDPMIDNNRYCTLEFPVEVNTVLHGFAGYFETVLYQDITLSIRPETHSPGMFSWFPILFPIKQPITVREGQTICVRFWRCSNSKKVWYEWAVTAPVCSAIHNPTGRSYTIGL
# T1 sequence (Q9BQA1 with tags, fused parts or gaps partner limits assumed): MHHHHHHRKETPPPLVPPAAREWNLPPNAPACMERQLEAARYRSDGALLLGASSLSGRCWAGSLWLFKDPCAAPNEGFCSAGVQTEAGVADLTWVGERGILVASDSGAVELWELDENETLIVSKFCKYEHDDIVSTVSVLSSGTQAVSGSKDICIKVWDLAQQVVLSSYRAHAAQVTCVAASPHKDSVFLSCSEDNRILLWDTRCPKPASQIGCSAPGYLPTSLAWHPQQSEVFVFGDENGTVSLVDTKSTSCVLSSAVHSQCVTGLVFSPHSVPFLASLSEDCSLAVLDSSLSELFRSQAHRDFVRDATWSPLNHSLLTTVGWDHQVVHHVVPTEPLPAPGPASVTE
row,SMILES,IC50 [µM]
1,CC(=O)N1CCC(Nc2cc(C(=O)NC[C@H](O)CN3CCc4nc(C)sc4C3)ccn2)CC1 [Compound 1-9],1 to 10
2,"CC(=O)N1CCC(Nc2cc(C(=O)NC[C@H](O)CN3CCc4c(C)csc4C3)ncn2)CC1 [Compound 1-10, (S)-6-((1-acetylpiperidin-4-yl)amino)-N-(2-hydroxy-3-(3-methyl-4,5-dihydrothieno[2,3-c]pyridin-6(7H)-yl)propyl)pyrimidine-4-carboxamide]",< 0.1
3,"CC(=O)N1CCC(Nc2cc(C(=O)NC[C@H](O)CN3CCc4sc(C)c(C)c4C3)ccn2)CC1 [Compound 1-15, (S)-2-((1-acetylpiperidin-4-yl)amino)-N-(3-(2,3-dimethyl-6,7-dihydrothieno[3,2-c]pyridin-5(4H)-yl)-2-hydroxypropyl)isonicotinamide]",< 0.1
4,O=C(NC[C@H](O)CN1CCc2scnc2C1)c1cc(NC2COC2)ncn1 [Compound 1-21],> 10
5,Cc1nc2c(s1)CCN(C[C@@H](O)CNC(=O)c1cc(NC3COC3)ncn1)C2 [Compound 1-22],> 10
6,Cc1sc2c(c1C)CN(C[C@@H](O)CNC(=O)c1cc(NC3COC3)ncn1)CC2 [Compound 1-24],< 0.1
7,CC(=O)N1CC(Nc2cc(C(=O)NC[C@H](O)CN3CCc4scnc4C3)ncn2)C1 [Compound 1-25],> 10
8,CC(=O)N1CC(Nc2cc(C(=O)NC[C@H](O)CN3CCc4c(C)csc4C3)ncn2)C1 [Compound 1-26],0.101 to 1
9,CC(=O)N1CC(Nc2cc(C(=O)NC[C@H](O)CN3CCc4sc(C)c(C)c4C3)ncn2)C1 [Compound 1-31],< 0.1
10,CC(=O)N1CCC(Nc2cc(C(=O)NC[C@H](O)CN3CCc4sc(C)c(C)c4C3)ncn2)CC1 [Compound 1-39],< 0.1
11,"OC(COc1cccc(CNC2CCCC2)c1)CN1CCc2ccncc2C1 (stereo not shown) [Compound 2-2, 1-(3-((cyclopentylamino)methyl)phenoxy)-3-(3,4-dihydro-2,7-naphthyridin-2(1H)-yl)propan-2-ol]",> 50
12,OC(COc1cccc(CNC2CCCC2)c1)CN1CCc2cnccc2C1 (stereo not shown) [Compound 2-3],> 50
13,"Cn1cnc2ccc(-c3cccc(OCC(O)CN4CCc5ncccc5C4)c3)cc21 (stereo not shown) [Compound 2-4, 1-(7,8-dihydro-1,6-naphthyridin-6(5H)-yl)-3-(3-(1-methyl-1H-benzo[d]imidazol-6-yl)phenoxy)propan-2-ol]",10 to 50
14,Cn1cc2c(n1)CCN(C[C@@H](O)COc1cccc(-c3ccc4ncn(C)c4c3)c1)C2 [Compound 3-1],> 50
15,Cn1cc2c(n1)CCN(CC(O)COc1cccc(CNC3CCCC3)c1)C2 (stereo not shown) [Compound 3-2],> 50
16,Cn1cnc2c1CCN(C[C@@H](O)COc1cccc(CNC3CCCC3)c1)C2 [Compound 3-3],> 50
17,Cn1ncc2c1CCN(C[C@@H](O)COc1cccc(-c3ccc4ncn(C)c4c3)c1)C2 [Compound 3-4],> 50
18,Cn1ncc2c1CCN(C[C@H](O)COc1cccc(-c3ccc4ncn(C)c4c3)c1)C2 [Compound 3-5],> 50
19,"Cn1cnc2ccc(-c3cccc(OCC(O)CN4CCc5[nH]nc(-c6ccccc6)c5C4)c3)cc21 (stereo not shown) [Compound 3-6, 1-(3-(1-methyl-1H-benzo[d]imidazol-6-yl)phenoxy)-3-(3-phenyl-6,7-dihydro-1H-pyrazolo[4,3-c]pyridin-5(4H)-yl)propan-2-ol]",10 to 50
20,OC(COc1cccc(CNC2CCCC2)c1)CN1CCc2[nH]cnc2C1 (stereo not shown) [Compound 3-7],> 50
21,Cn1ncc2c1CCN(CC(O)COc1cccc(CNC3CCCC3)c1)C2 (stereo not shown) [Compound 3-8],> 50
22,Cn1cnc2c1CCN(C[C@H](O)COc1cccc(CNC3CCCC3)c1)C2 [Compound 3-13],> 50
23,Cn1cnc2c1CN(C[C@@H](O)COc1cccc(CNC3CCCC3)c1)CC2 [Compound 3-15],> 50
24,Cn1cnc2c1CN(C[C@H](O)COc1cccc(CNC3CCCC3)c1)CC2 [Compound 3-16],> 50
25,Cn1cc2c(n1)CCN(C[C@H](O)COc1cccc(-c3ccc4ncn(C)c4c3)c1)C2 [Compound 3-18],> 50

# From patent US20170210751A1, “PRMT5 INHIBITORS AND USES THEREOF” (Epizyme, Inc., priority 2014, published 2017)
